Results reported in patent US6900219B2, “ABCA-1 elevating compounds” (CV Therapeutics, Inc., priority 2002, dated 2005).

Test system: ABCA-1 gene
Assay: compounds tested and found to elevate cellular expression of the ABCA-1 gene (Examples 1-6; test not named)
Format: cell-based
Procedure: Activity testing is conducted as described in those patents and patent applications referenced above, and in the Examples below, and by methods apparent to one skilled in the art.

Row | Compound | cellular expression of the ABCA-1 gene
1 | CCOC(=O)CC(=O)CSc1nnc(NC(=O)c2ccc(Cl)cc2)s1 [ethyl 4-{5-[(4-chlorophenyl)carbonylamino](1,3,4-thiadiazol-2-ylthio)}-3-oxobutanoate] | elevate cellular expression of the ABCA-1 gene
2 | O=C(Nc1ncc(-c2ccccc2)s1)c1ccno1 [isoxazol-5-yl-N-(5-phenyl(1,3-thiazol-2-yl))carboxamide] | elevate cellular expression of the ABCA-1 gene
3 | COC(=O)c1ccc(C(=O)NC2=NCCS2)cc1 [methyl 4-(N-(1,3-thiazolin-2-yl)carbamoyl)benzoate] | elevate cellular expression of the ABCA-1 gene
4 | COC(=O)c1ccc(C(=O)NC2=NC(=O)CS2)cc1 [methyl 4-[N-(4-oxo-1,3-thiazolin-2-yl)carbamoyl]benzoate] | elevate cellular expression of the ABCA-1 gene
5 | COC(=O)c1ccc(/N=C(\NC2CCCCC2)N2CCN(Cc3ccc4c(c3)OCO4)CC2)c(O)c1 [methyl 4-{(1E)-1-aza-2-[4-(2H-benzo[d]1,3-dioxolen-5-ylmethyl)piperazinyl]-2-(cyclohexylamino)vinyl}-3-hydroxybenzoate] | elevate cellular expression of the ABCA-1 gene
6 | Nc1c(C(=O)Oc2ccccc2)oc2nc3c(cc12)CCC3 [phenyl 3-amino-5,6,7-trihydrocyclopenta[1,2-b]furano[4,5-e]pyridine-2-carboxylate] | elevate cellular expression of the ABCA-1 gene
7 | O=C(NC1=NCCS1)c1ccccc1 [phenyl-N-(1,3-thiazolin-2-yl)carboxamide] | elevate cellular expression of the ABCA-1 gene
8 | O=C(NCCc1ccccn1)c1ccccc1 [phenyl-N-(2-(2-pyridyl)ethyl)carboxamide] | elevate cellular expression of the ABCA-1 gene
9 | O=C1CSC(NC(=O)c2ccccc2)=N1 [phenyl-N-(4-oxo(1,3-thiazolin-2-yl))carboxamide] | elevate cellular expression of the ABCA-1 gene
10 | CCc1c(C(=O)NCC(C)C)cnn1-c1nc(-c2ccc(Br)cc2)cs1 [{1-[4-(4-bromophenyl)(1,3-thiazol-2-yl)]-5-ethylpyrazol-4-yl}-N-(2-methylpropyl)carboxamide] | elevate cellular expression of the ABCA-1 gene
11 | CCCCCCNC(=O)c1cnn(-c2nc(-c3ccc(Br)cc3)cs2)c1CC [{1-[4-(4-bromophenyl)(1,3-thiazol-2-yl)]-5-ethylpyrazol-4-yl}-N-hexylcarboxamide] | elevate cellular expression of the ABCA-1 gene
12 | CCc1c(C(=O)N2CCN(C(=O)c3ccc4ccccc4c3)C(C)C2)cnn1-c1nc(-c2ccc(Cl)cc2)cs1 (centres unmarked) [{1-[4-(4-chloro-phenyl)-thiazol-2-yl]-5-ethyl-1H-pyrazol-4-yl}-[3-methyl-4-(naphthalene-2-carbonyl)-piperazin-1-yl]-methanone] | elevate cellular expression of the ABCA-1 gene
13 | Cc1c(C(=O)NCc2ccccc2)cnn1-c1nc(-c2ccc(Cl)cc2)cs1 [{1-[4-(4-chlorophenyl)(1,3-thiazol-2-yl)]-5-methylpyrazol-4-yl}-N-benzylcarboxamide] | elevate cellular expression of the ABCA-1 gene
14 | Cc1c(C(=O)NC2CC2)cnn1-c1nc(C(C)(C)C)cs1 [{1-[4-(tert-butyl)(1,3-thiazol-2-yl)]-5-methylpyrazol-4-yl}-N-cyclopropylcarboxamide] | elevate cellular expression of the ABCA-1 gene
15 | CCc1c(C(=O)NCCC(C)C)cnn1-c1nc(-c2ccc(OC)cc2)cs1 [{5-ethyl-1-[4-(4-methoxyphenyl)(1,3-thiazol-2-yl)]pyrazol-4-yl}-N-(3-methylbutyl)carboxamide] | elevate cellular expression of the ABCA-1 gene
16 | CCc1c(C(=O)NCCc2ccccc2)cnn1-c1nc(-c2ccc(C)cc2)cs1 [{5-ethyl-1-[4-(4-methylphenyl)(1,3-thiazol-2-yl)]pyrazol-4-yl}-N-(2-phenylethyl)carboxamide] | elevate cellular expression of the ABCA-1 gene
17 | Cc1c(C(=O)NCCc2ccccc2)cnn1-c1nc(-c2ccc(F)cc2)cs1 [{5-methyl-1-[4-(4-fluorophenyl)(1,3-thiazol-2-yl)]pyrazol-4-yl}-N-(2-phenylethyl)carboxamide] | elevate cellular expression of the ABCA-1 gene
18 | CCCCNC(=O)c1cnn(-c2nc(-c3ccc(C)cc3)cs2)c1C [{5-methyl-1-[4-(4-methylphenyl)(1,3-thiazol-2-yl)]pyrazol-4-yl}-N-butylcarboxamide] | elevate cellular expression of the ABCA-1 gene
19 | CCCCCNC(=O)c1cnn(-c2nc(-c3ccc(C)cc3)cs2)c1C [{5-methyl-1-[4-(4-methylphenyl)(1,3-thiazol-2-yl)]pyrazol-4-yl}-N-pentylcarboxamide] | elevate cellular expression of the ABCA-1 gene
20 | (2,4-difluorophenyl)-N-(4-naphthyl(1,3-thiazol-2-yl))carboxamide | elevate cellular expression of the ABCA-1 gene
21 | (3-chlorobenzo[b]thiophen-2-yl)-N-(ethynylcyclohexyl)carboxamide | elevate cellular expression of the ABCA-1 gene
22 | N-(2-phenylcyclopropyl)piperidylcarboxamide | elevate cellular expression of the ABCA-1 gene
23 | N-(4-naphthyl(1,3-thiazol-2-yl))(4-phenylphenyl)carboxamide | elevate cellular expression of the ABCA-1 gene
24 | N-(4-naphthyl(1,3-thiazol-2-yl))[3-(trifluoromethyl)phenyl]carboxamide | elevate cellular expression of the ABCA-1 gene
25 | N-(4-naphthyl(1,3-thiazol-2-yl))[4-(trifluoromethoxy)phenyl]carboxamide | elevate cellular expression of the ABCA-1 gene
26 | [4-(methylethyl)phenyl]-N-(4-oxo(1,3-thiazolin-2-yl))carboxamide | elevate cellular expression of the ABCA-1 gene
27 | [4-(tert-butyl)phenyl]-N-(4-naphthyl(1,3-thiazol-2-yl))carboxamide | elevate cellular expression of the ABCA-1 gene
28 | [((2E)-2-pentyl-3-phenylprop-2-enyl)({1-[(4-butylphenyl)carbonyl](4-piperidyl)}methyl)amino]-N-benzamide | elevate cellular expression of the ABCA-1 gene
29 | {1-[4-(3-methoxyphenyl)(1,3-thiazol-2-yl)]-5-methylpyrazol-4-yl}-N-(methylethyl)carboxamide | elevate cellular expression of the ABCA-1 gene
